Assay results published in the NIST ThermoML archive (doi:10.1016/j.fluid.2014.05.032).

Assay: xn = mol fraction of the nth substance listed
Conditions: Liquid, Constant-volume piezometry

CCO [ethanol] + O
Conditions	mass density [kg/m3]
292.95 K, 2450 kPa, x1 = 0.073	974.2
292.95 K, 11320 kPa, x1 = 0.073	977.6
292.95 K, 21120 kPa, x1 = 0.073	981.2
292.95 K, 30930 kPa, x1 = 0.073	985
292.95 K, 39230 kPa, x1 = 0.073	988
297.05 K, 2490 kPa, x1 = 0.0163	990.8
297.05 K, 11280 kPa, x1 = 0.0163	993.5
297.05 K, 21070 kPa, x1 = 0.0163	997.5
297.05 K, 30810 kPa, x1 = 0.0163	1003.2
297.05 K, 39170 kPa, x1 = 0.0163	1006.1
298.15 K, 2560 kPa, x1 = 0.0946	965.8
298.15 K, 10120 kPa, x1 = 0.0946	968.6
298.15 K, 20060 kPa, x1 = 0.0946	972.4
298.15 K, 29980 kPa, x1 = 0.0946	976.1
298.15 K, 40030 kPa, x1 = 0.0946	979.8
298.35 K, 2590 kPa, x1 = 0.0343	984.1
298.35 K, 11280 kPa, x1 = 0.0343	987.9
298.35 K, 21300 kPa, x1 = 0.0343	991.9
298.35 K, 31040 kPa, x1 = 0.0343	995.7
298.35 K, 39150 kPa, x1 = 0.0343	998.6
323.15 K, 2570 kPa, x1 = 0.0163	980.6
323.15 K, 2610 kPa, x1 = 0.073	959.3
323.15 K, 2730 kPa, x1 = 0.0946	951.3
323.15 K, 10940 kPa, x1 = 0.073	962.8
323.15 K, 11140 kPa, x1 = 0.0946	954.9
323.15 K, 11390 kPa, x1 = 0.0163	984.4
323.15 K, 20710 kPa, x1 = 0.0946	958.8
323.15 K, 20790 kPa, x1 = 0.073	966.7
323.15 K, 21080 kPa, x1 = 0.0163	988.4
323.15 K, 30360 kPa, x1 = 0.073	970.6
323.15 K, 30890 kPa, x1 = 0.0163	992.3
323.15 K, 32400 kPa, x1 = 0.0946	963.3
323.15 K, 38480 kPa, x1 = 0.0163	995.2
323.15 K, 38600 kPa, x1 = 0.073	973.6
323.15 K, 39810 kPa, x1 = 0.0946	966.2
323.65 K, 2610 kPa, x1 = 0.0343	973.6
323.65 K, 11320 kPa, x1 = 0.0343	977.4
323.65 K, 21200 kPa, x1 = 0.0343	981.4
323.65 K, 30930 kPa, x1 = 0.0343	985.2
323.65 K, 39010 kPa, x1 = 0.0343	988.2
348.15 K, 2730 kPa, x1 = 0.0946	933.7
348.15 K, 3220 kPa, x1 = 0.0163	967.1
348.15 K, 3260 kPa, x1 = 0.0343	959.9
348.15 K, 3330 kPa, x1 = 0.073	943
348.15 K, 10980 kPa, x1 = 0.0163	970.6
348.15 K, 11060 kPa, x1 = 0.073	946.6
348.15 K, 11390 kPa, x1 = 0.0946	937.4
348.15 K, 11590 kPa, x1 = 0.0343	963.5
348.15 K, 20750 kPa, x1 = 0.0163	974.7
348.15 K, 20870 kPa, x1 = 0.073	950.8
348.15 K, 20870 kPa, x1 = 0.0946	941.6
348.15 K, 21160 kPa, x1 = 0.0343	967.5
348.15 K, 29500 kPa, x1 = 0.0163	978.3
348.15 K, 29730 kPa, x1 = 0.0946	945.4
348.15 K, 30400 kPa, x1 = 0.073	955
348.15 K, 30850 kPa, x1 = 0.0343	971.3
348.15 K, 37790 kPa, x1 = 0.0946	948.7
348.15 K, 39600 kPa, x1 = 0.073	958.9
348.15 K, 39860 kPa, x1 = 0.0343	974.7
348.15 K, 39910 kPa, x1 = 0.0163	982.3
373.15 K, 3330 kPa, x1 = 0.0946	908.6
373.15 K, 3370 kPa, x1 = 0.0163	950.2
373.15 K, 3390 kPa, x1 = 0.0343	942.1
373.15 K, 3510 kPa, x1 = 0.073	923.9
373.15 K, 11320 kPa, x1 = 0.0163	953.8
373.15 K, 11320 kPa, x1 = 0.073	927.7
373.15 K, 11390 kPa, x1 = 0.0946	912.8
373.15 K, 11470 kPa, x1 = 0.0343	945.9
373.15 K, 21080 kPa, x1 = 0.073	932.5
373.15 K, 21120 kPa, x1 = 0.0343	950.3
373.15 K, 21160 kPa, x1 = 0.0163	958.3
373.15 K, 21200 kPa, x1 = 0.0946	917.7
373.15 K, 30520 kPa, x1 = 0.0343	954.5
373.15 K, 30600 kPa, x1 = 0.0163	962.5
373.15 K, 30670 kPa, x1 = 0.073	937
373.15 K, 30850 kPa, x1 = 0.0946	922.3
373.15 K, 35700 kPa, x1 = 0.0163	964.6
373.15 K, 37230 kPa, x1 = 0.073	939.9
373.15 K, 39000 kPa, x1 = 0.0343	957.9
373.15 K, 39410 kPa, x1 = 0.0946	927.3
398.15 K, 3510 kPa, x1 = 0.0946	885.8
398.15 K, 3550 kPa, x1 = 0.0343	921.6
398.15 K, 3710 kPa, x1 = 0.0163	930.3
398.15 K, 3710 kPa, x1 = 0.073	901.9
398.15 K, 11430 kPa, x1 = 0.0946	890.4
398.15 K, 11510 kPa, x1 = 0.073	906.2
398.15 K, 11630 kPa, x1 = 0.0163	934.4
398.15 K, 11730 kPa, x1 = 0.0343	925.8
398.15 K, 21160 kPa, x1 = 0.073	911.4
398.15 K, 21200 kPa, x1 = 0.0946	896
398.15 K, 21360 kPa, x1 = 0.0163	939.3
398.15 K, 21530 kPa, x1 = 0.0343	930.7
398.15 K, 30790 kPa, x1 = 0.0163	943.7
398.15 K, 30790 kPa, x1 = 0.073	916.3
398.15 K, 30850 kPa, x1 = 0.0946	901.1
398.15 K, 30930 kPa, x1 = 0.0343	935.2
398.15 K, 37300 kPa, x1 = 0.0343	938.3
398.15 K, 39500 kPa, x1 = 0.073	920.7
398.15 K, 39610 kPa, x1 = 0.0946	905.3
398.15 K, 39890 kPa, x1 = 0.0163	948
423.15 K, 2680 kPa, x1 = 0.0163	906.7
423.15 K, 2680 kPa, x1 = 0.0343	897.3
423.15 K, 2750 kPa, x1 = 0.0946	860.1
423.15 K, 2760 kPa, x1 = 0.073	875.9
423.15 K, 10050 kPa, x1 = 0.0946	863.9
423.15 K, 10170 kPa, x1 = 0.0163	911
423.15 K, 10240 kPa, x1 = 0.0343	901.8
423.15 K, 10710 kPa, x1 = 0.073	881.1
423.15 K, 20110 kPa, x1 = 0.073	887.1
423.15 K, 20200 kPa, x1 = 0.0946	869.5
423.15 K, 20970 kPa, x1 = 0.0163	917
423.15 K, 21070 kPa, x1 = 0.0343	908.1
423.15 K, 30100 kPa, x1 = 0.0946	875.5
423.15 K, 30490 kPa, x1 = 0.073	893
423.15 K, 30570 kPa, x1 = 0.0163	922.4
423.15 K, 30640 kPa, x1 = 0.0343	913.4
423.15 K, 39560 kPa, x1 = 0.0163	927.2
423.15 K, 39680 kPa, x1 = 0.0343	918.2
423.15 K, 39860 kPa, x1 = 0.0946	882.2
423.15 K, 40110 kPa, x1 = 0.073	898.6
448.15 K, 3860 kPa, x1 = 0.0946	831.7
448.15 K, 3960 kPa, x1 = 0.0163	882.3
448.15 K, 4000 kPa, x1 = 0.073	849.3
448.15 K, 4080 kPa, x1 = 0.0343	872.1
448.15 K, 11550 kPa, x1 = 0.0946	837.9
448.15 K, 11920 kPa, x1 = 0.0163	887.5
448.15 K, 11960 kPa, x1 = 0.0343	877.7
448.15 K, 12160 kPa, x1 = 0.073	855.6
448.15 K, 21530 kPa, x1 = 0.0163	893.7
448.15 K, 21690 kPa, x1 = 0.073	862.7
448.15 K, 21690 kPa, x1 = 0.0946	845.8
448.15 K, 22180 kPa, x1 = 0.0343	884.2
448.15 K, 30990 kPa, x1 = 0.0946	852.6
448.15 K, 31010 kPa, x1 = 0.0343	889.8
448.15 K, 31050 kPa, x1 = 0.0163	899.4
448.15 K, 31170 kPa, x1 = 0.073	869.2
448.15 K, 37210 kPa, x1 = 0.073	873
448.15 K, 38340 kPa, x1 = 0.0163	903.5
448.15 K, 40060 kPa, x1 = 0.0343	894.8
448.15 K, 40140 kPa, x1 = 0.0946	858.6
